# Data from patent US5395947A, “Platinum(II) complex and processes for preparing the same” (Sunkyong Industries, Ltd., priority 1991, dated 1995).
# What was measured:
# [1] = test system: murine leukemia L1210 cells; experiment: Growth inhibition test on cultured murine leukemia L1210 cells; type: cell-based; settings: 48 hours, 37° C., Trypan blue viability
# In short: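 Read-out is Trypan blue (0.17%) viability versus compound-free controls. Cells, 1×10^5, were cultured 48 h at 37° C under 5% CO2 in RPMI 1640/10% FCS containing various compound concentrations.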
# [2] = test system: murine leukemia L1210; experiment: Antitumor activity test on murine leukemia L1210 in vivo; parameters: species or system male BDF1 mice; settings: days 1, 5, 9
# In short: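 Male BDF1 mice (6 weeks, 21±3 g; n=7) received 1×10^6 leukemia cells into the peritoneum on day 0, then test compound suspended or dissolved in 0.5% CMC i.p. on days 1, 5, 9. Activity expressed as T/C %, mean survival treated versus 0.5% CMC-injected controls.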
# [3] = Test for nephrotoxicity; type: in vivo, male ICR mice; settings: 18.8 mg/kg i.p. once
# Experimental: 4. Test for nephrotoxicity
# The compounds of the present invention were dissolved or suspended in 0.5% CMC solution(in water) and were administered intraperitoneally one time to 8-week-old male ICR mice weighing 30±3 g. Each treatment and control groups consisted of six mice.
# The administration amount of the test compound was 1.5 times the optimum dose obtained in Table 2, or more. On days 1, 4 and 8 after administration, their blood was collected under ether anesthesia for measurement of blood urea nitrogen concentration (BUN value) and creatinine concentration.
# A pair of kidneys were taken and, after immediate weighing, were stored in a 10% neutral buffered formalin solution. The body weight ratio shown in Table 5 is a ratio of the body weight measured on days 1, 4 and 8 from the administration of the compound to the body weight measured on the administration day.
# [4] = test system: ICR mice; experiment: Acute toxicity test; type: in vivo; parameters: Lethality: unit not given here; settings: for Lethality: 10080 min
# In short: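 Single i.p. administration to ICR mice (7 weeks old, both sexes, n=6/group); appearance and mortality logged over 7 days, dead animals autopsied for gross pathology.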
# [5] = Test for water solubility; type: physicochemical; settings: 20° C.
# Source text: 3. Test for water solubility
# A standard plot of UV absorbance(220 nm) vs. concentration was made; and employed to determine water-solubility.
# The mixture was then passed through a 0.45 micron disposable membrane filter before dilution and UV measurement.
smiles,measurement,setting,value
"CC(C)C1OC(CN)C(CN)O1.CC1[O][Pt][O]C1=O [Example 19, (L-lactato-O,O')[(4R,5R)-4,5-bis(aminomethyl)-2-isopropyl-1,3-dioxolane]platinum(II)]",IC50 (concentration required for 50% inhibition of growth),[1],0.29 µg/mL
same,T/C (%),[2]; 12.5 mg/kg i.p.,208%
same,T/C (%),[2]; 25 mg/kg i.p.,232%
same,T/C (%),[2]; 50 mg/kg i.p.,toxic
same,"BUN, 1st day",[3],38.6 mg/100 ml
same,"BUN, 4th day",[3],27.9 mg/100 ml
same,"BUN, 8th day",[3],50.7 mg/100 ml
same,Number of dead mice for 7 days,"[4]; female, 41.3 mg/kg i.p.",2/6
same,"Number of dead mice, 1st day","[4]; female, 41.3 mg/kg i.p.",0/6
same,"Number of dead mice, 5th day","[4]; female, 41.3 mg/kg i.p.",1/6
same,"Number of dead mice, 6th day","[4]; female, 41.3 mg/kg i.p.",1/5
same,Lethality,"[4]; female, 41.3 mg/kg i.p.",33.3
same,Number of dead mice for 7 days,"[4]; female, 54.9 mg/kg i.p.",4/6
same,"Number of dead mice, 1st day","[4]; female, 54.9 mg/kg i.p.",0/6
same,"Number of dead mice, 3rd day","[4]; female, 54.9 mg/kg i.p.",1/6
same,"Number of dead mice, 4th day","[4]; female, 54.9 mg/kg i.p.",2/5
same,"Number of dead mice, 5th day","[4]; female, 54.9 mg/kg i.p.",1/3
same,Lethality,"[4]; female, 54.9 mg/kg i.p.",66.7
same,Number of dead mice for 7 days,"[4]; female, 71.4 mg/kg i.p.",5/6
same,"Number of dead mice, 1st day","[4]; female, 71.4 mg/kg i.p.",0/6
same,"Number of dead mice, 4th day","[4]; female, 71.4 mg/kg i.p.",1/6
same,"Number of dead mice, 5th day","[4]; female, 71.4 mg/kg i.p.",3/5
same,"Number of dead mice, 6th day","[4]; female, 71.4 mg/kg i.p.",1/2
same,Lethality,"[4]; female, 71.4 mg/kg i.p.",83.3
same,Number of dead mice for 7 days,"[4]; female, 91.8 mg/kg i.p.",6/6
same,"Number of dead mice, 1st day","[4]; female, 91.8 mg/kg i.p.",0/6
same,"Number of dead mice, 2nd day","[4]; female, 91.8 mg/kg i.p.",1/6
same,"Number of dead mice, 3rd day","[4]; female, 91.8 mg/kg i.p.",2/5
same,"Number of dead mice, 4th day","[4]; female, 91.8 mg/kg i.p.",2/3
same,"Number of dead mice, 5th day","[4]; female, 91.8 mg/kg i.p.",1/1
same,Lethality,"[4]; female, 91.8 mg/kg i.p.",100.0
same,Number of dead mice for 7 days,"[4]; male, 41.3 mg/kg i.p.",3/6
same,"Number of dead mice, 1st day","[4]; male, 41.3 mg/kg i.p.",0/6
same,"Number of dead mice, 5th day","[4]; male, 41.3 mg/kg i.p.",1/6
same,"Number of dead mice, 6th day","[4]; male, 41.3 mg/kg i.p.",2/5
same,Lethality,"[4]; male, 41.3 mg/kg i.p.",50.0
same,Number of dead mice for 7 days,"[4]; male, 54.9 mg/kg i.p.",4/6
same,"Number of dead mice, 1st day","[4]; male, 54.9 mg/kg i.p.",0/6
same,"Number of dead mice, 4th day","[4]; male, 54.9 mg/kg i.p.",1/6
same,"Number of dead mice, 5th day","[4]; male, 54.9 mg/kg i.p.",2/5
same,"Number of dead mice, 6th day","[4]; male, 54.9 mg/kg i.p.",1/3
same,Lethality,"[4]; male, 54.9 mg/kg i.p.",66.7
same,Number of dead mice for 7 days,"[4]; male, 71.4 mg/kg i.p.",5/6
same,"Number of dead mice, 1st day","[4]; male, 71.4 mg/kg i.p.",0/6
same,"Number of dead mice, 4th day","[4]; male, 71.4 mg/kg i.p.",1/6
same,"Number of dead mice, 5th day","[4]; male, 71.4 mg/kg i.p.",2/5
same,"Number of dead mice, 6th day","[4]; male, 71.4 mg/kg i.p.",2/3
same,Lethality,"[4]; male, 71.4 mg/kg i.p.",83.7
same,Number of dead mice for 7 days,"[4]; male, 91.8 mg/kg i.p.",6/6
same,"Number of dead mice, 1st day","[4]; male, 91.8 mg/kg i.p.",0/6
same,"Number of dead mice, 2nd day","[4]; male, 91.8 mg/kg i.p.",1/6
same,"Number of dead mice, 3rd day","[4]; male, 91.8 mg/kg i.p.",4/5
same,"Number of dead mice, 5th day","[4]; male, 91.8 mg/kg i.p.",1/1
same,Lethality,"[4]; male, 91.8 mg/kg i.p.",100.0
"CCC1O[C@H](CN)[C@@H](CN)O1.O=C1C[O][Pt][O]1 [Example 6, (glycolato-O,O')[(4R,5R)-4,5-bis(aminomethyl)-2-ethyl-1,3-dioxolane]platinum(II)]",IC50 (concentration required for 50% inhibition of growth),[1],0.22 µg/mL
same,T/C (%),[2]; 3.1 mg/kg i.p.,113%
same,T/C (%),[2]; 6.2 mg/kg i.p.,162%
same,T/C (%),[2]; 12.5 mg/kg i.p.,205%
same,T/C (%),[2]; 25 mg/kg i.p.,toxic
same,T/C (%),[2]; 50 mg/kg i.p.,toxic
same,Solubility in water,[5],> 50 mg/mL
same,"BUN, 1st day",[3],22.41 mg/100 ml
same,"BUN, 4th day",[3],22.67 mg/100 ml
same,"BUN, 8th day",[3],30.41 mg/100 ml
same,Number of dead mice for 7 days,"[4]; female, 25.0 mg/kg i.p.",0/6
same,"Number of dead mice, 1st day","[4]; female, 25.0 mg/kg i.p.",0/6
same,Number of dead mice for 7 days,"[4]; female, 32.5 mg/kg i.p.",1/6
same,"Number of dead mice, 1st day","[4]; female, 32.5 mg/kg i.p.",0/6
same,"Number of dead mice, 3rd day","[4]; female, 32.5 mg/kg i.p.",1/6
same,Lethality,"[4]; female, 32.5 mg/kg i.p.",16.7
same,Number of dead mice for 7 days,"[4]; female, 42.3 mg/kg i.p.",3/6
same,"Number of dead mice, 1st day","[4]; female, 42.3 mg/kg i.p.",0/6
same,"Number of dead mice, 3rd day","[4]; female, 42.3 mg/kg i.p.",1/6
same,"Number of dead mice, 4th day","[4]; female, 42.3 mg/kg i.p.",1/5
same,"Number of dead mice, 5th day","[4]; female, 42.3 mg/kg i.p.",1/4
same,Lethality,"[4]; female, 42.3 mg/kg i.p.",50.0
same,Number of dead mice for 7 days,"[4]; female, 55.0 mg/kg i.p.",5/6
same,"Number of dead mice, 1st day","[4]; female, 55.0 mg/kg i.p.",0/6
same,"Number of dead mice, 3rd day","[4]; female, 55.0 mg/kg i.p.",4/6
same,"Number of dead mice, 4th day","[4]; female, 55.0 mg/kg i.p.",1/2
same,Lethality,"[4]; female, 55.0 mg/kg i.p.",83.3
same,Number of dead mice for 7 days,"[4]; female, 71.4 mg/kg i.p.",6/6
same,"Number of dead mice, 1st day","[4]; female, 71.4 mg/kg i.p.",0/6
same,"Number of dead mice, 3rd day","[4]; female, 71.4 mg/kg i.p.",4/6
same,"Number of dead mice, 4th day","[4]; female, 71.4 mg/kg i.p.",2/2
same,Lethality,"[4]; female, 71.4 mg/kg i.p.",100.0
same,Number of dead mice for 7 days,"[4]; male, 25.0 mg/kg i.p.",0/6
same,"Number of dead mice, 1st day","[4]; male, 25.0 mg/kg i.p.",0/6
same,Number of dead mice for 7 days,"[4]; male, 32.5 mg/kg i.p.",0/6
same,"Number of dead mice, 1st day","[4]; male, 32.5 mg/kg i.p.",0/6
same,"Number of dead mice, 3rd day","[4]; male, 32.5 mg/kg i.p.",1/6
same,Lethality,"[4]; male, 32.5 mg/kg i.p.",16.7
same,Number of dead mice for 7 days,"[4]; male, 42.3 mg/kg i.p.",4/6
same,"Number of dead mice, 1st day","[4]; male, 42.3 mg/kg i.p.",0/6
same,"Number of dead mice, 3rd day","[4]; male, 42.3 mg/kg i.p.",1/6
same,"Number of dead mice, 4th day","[4]; male, 42.3 mg/kg i.p.",2/5
same,"Number of dead mice, 5th day","[4]; male, 42.3 mg/kg i.p.",1/3
same,Lethality,"[4]; male, 42.3 mg/kg i.p.",66.7
same,Number of dead mice for 7 days,"[4]; male, 55.0 mg/kg i.p.",6/6
same,"Number of dead mice, 1st day","[4]; male, 55.0 mg/kg i.p.",0/6
same,"Number of dead mice, 3rd day","[4]; male, 55.0 mg/kg i.p.",4/6
same,"Number of dead mice, 4th day","[4]; male, 55.0 mg/kg i.p.",1/2
same,"Number of dead mice, 5th day","[4]; male, 55.0 mg/kg i.p.",1/1
same,Lethality,"[4]; male, 55.0 mg/kg i.p.",100.0
same,Number of dead mice for 7 days,"[4]; male, 71.4 mg/kg i.p.",6/6
same,"Number of dead mice, 1st day","[4]; male, 71.4 mg/kg i.p.",0/6
same,"Number of dead mice, 3rd day","[4]; male, 71.4 mg/kg i.p.",4/6
same,"Number of dead mice, 4th day","[4]; male, 71.4 mg/kg i.p.",2/2
same,Lethality,"[4]; male, 71.4 mg/kg i.p.",100.0
